# Counter-ions that a name gives are not always drawn.
# Legend:
# [1] = target: T1, VEGFR2 (Homo sapiens, UniProt P35968); assay: VEGFR2 cell-based assay (ELISA, phosphor-/total VEGFR2 in transfected CHO cells); settings: compound at 100 nM; CHO cells transfected with full length VEGFR2; FBS stimulation; read-out: % VEGFR2 kinase activity remains
# T1 construct: expressed in transfected cells; host or cells: CHO cells
# From the text: A standard cell-based assay for VEGFR2 kinase activity can be used to test or screen the compounds of this invention and to identify VEGFR2 antagonists. In this example, ELISA kits (R&D Systems, Inc., Minneapolis, Minn. 55413, USA) were used.
# (§1) The activity of VEGFR2 in cells depended on its autophosphorylation level by various factors including growth factors. In order to induce the cell to produce VEGFR2, full length of VEGFR2 sequence was cloned into PC-DNA3.1 vector, the plasmid was then transfected into CHO cells. After 48 hours, the expression of VEGFR2 in transfected CHO cells was confirmed by regular western blotting.
# A compound to be tested was first dissolved in DMSO to a concentration of 10 mM and stored at −20° C. One day before the test, CHO cells transfected with full length VEGFR2 plasmid were grown in Dulbecco's Modified Eagle Medium (DMEM) without the presence of serum. On the day of the test, the compounds with various concentrations in DMSO (from 0.5 nM to 500 nM) were added into DMEM. Two hours later, 20% of FBS (Fetal Bovine Serum) was added into the medium to stimulate the production of phosphor-VEGFR2. Cell lysate from approximately 5×10^5 transfected CHO cells were reacted with anti-phosphor VEGFR2 or anti-total VEGFR2 antibody in 96-well plates, in the presence of detection antibody. The phosphor-VEGFR2 or total VEGFR2 were detected with Streptavidin-HRP(R&D Systems), followed by chemiluminescent detection. The level of VEGFR2 kinase activity was quantified as the ratio between the amount of phosphor- and that of total VEGFR2 proteins.
# [2] = target: T2, PDGFRβ (Homo sapiens, UniProt P09619); assay: PDGFRβ cell-based assay (ELISA, phosphor-/total PDGFRβ in transfected CHO cells); settings: compound at 100 nM; CHO cells transfected with full length PDGFRβ; FBS stimulation; read-out: % PDGFRβ kinase activity remains
# T2 construct: expressed in transfected cells; host or cells: CHO cells
# T2 sequence (P09619 33-1106): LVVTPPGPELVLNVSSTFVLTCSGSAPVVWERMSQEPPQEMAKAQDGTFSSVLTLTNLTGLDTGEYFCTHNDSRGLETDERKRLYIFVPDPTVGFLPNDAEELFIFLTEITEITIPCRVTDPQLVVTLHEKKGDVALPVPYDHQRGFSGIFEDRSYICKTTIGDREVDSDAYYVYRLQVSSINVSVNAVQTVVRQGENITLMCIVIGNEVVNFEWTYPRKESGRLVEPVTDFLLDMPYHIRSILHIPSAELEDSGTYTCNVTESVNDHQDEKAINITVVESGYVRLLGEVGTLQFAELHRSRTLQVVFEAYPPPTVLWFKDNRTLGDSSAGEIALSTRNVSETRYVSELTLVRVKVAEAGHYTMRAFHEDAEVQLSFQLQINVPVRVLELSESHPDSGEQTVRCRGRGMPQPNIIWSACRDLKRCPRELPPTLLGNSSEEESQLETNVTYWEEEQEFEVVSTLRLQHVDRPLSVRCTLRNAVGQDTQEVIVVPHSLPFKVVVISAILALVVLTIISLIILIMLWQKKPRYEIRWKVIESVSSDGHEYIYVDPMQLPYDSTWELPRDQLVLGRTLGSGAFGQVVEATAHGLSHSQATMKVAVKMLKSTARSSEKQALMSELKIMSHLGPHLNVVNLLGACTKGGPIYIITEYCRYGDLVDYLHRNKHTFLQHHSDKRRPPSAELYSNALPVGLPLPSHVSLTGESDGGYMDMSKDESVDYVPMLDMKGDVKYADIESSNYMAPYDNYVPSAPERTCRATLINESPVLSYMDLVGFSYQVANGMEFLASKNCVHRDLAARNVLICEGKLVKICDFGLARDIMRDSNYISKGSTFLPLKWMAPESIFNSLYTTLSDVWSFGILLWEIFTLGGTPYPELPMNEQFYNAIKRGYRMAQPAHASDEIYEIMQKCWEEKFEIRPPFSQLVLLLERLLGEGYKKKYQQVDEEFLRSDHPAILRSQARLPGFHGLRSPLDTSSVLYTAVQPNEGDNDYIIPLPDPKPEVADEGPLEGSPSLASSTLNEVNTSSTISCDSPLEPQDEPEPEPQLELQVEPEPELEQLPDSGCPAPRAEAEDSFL
# From the text: A standard cell-based assay for PDGFRβ kinase activity can be used to test or screen the compounds of this invention and to identify PDGFRβ antagonists. In this example, ELISA kits (R&D Systems, Inc., Minneapolis, Minn. 55413, USA) were used.
# as §1, with “PDGFRβ” for “VEGFR2”, “PDGFRβ,” for “VEGFR2,”
# A compound to be tested was first dissolved in DMSO to a concentration of 10 mM and stored at −20° C. One day before the screening, CHO cells transfected with full length PDGFRβ plasmid were grown in DMEM medium without the presence of serum. On the day of screening procedure, the compounds with various concentration in DMSO (from 0.5 nM to 500 nM) were added into DMEM medium, two hours later, 20% of FBS (Fetal Bovine Serum) was added into the medium to stimulate the production of phosphor-PDGFRβ. Cell lysate from approximately 5×10^5 transfected CHO cells were reacted with anti-phosphor PDGFRβ or anti-total PDGFRβ antibody in 96 well plates, in the presence of detection antibody. The phosphor-PDGFRβ or total PDGFRβ were detected with Streptavidin-HRP (R&D Systems), followed by chemiluminescent detection. The level of PDGFRβ kinase activity was quantified as the ratio between the amount of phosphor- and that of total PDGFRβ proteins.
# [3] = test system: Rat liver microsome; assay: Liver microsomal stability assay, rat; format: in vitro ADME; design: key: A: the percentage of a compound remains is greater than that of its deuterium non-enriched counterpart; B: a result otherwise; settings: 40 μM, 37° C., 30 min, 1 mg/ml microsome proteins; class relative to deuterium non-enriched counterpart
# Experimental: A standard liver microsomal stability assay can be used to test or screen the compounds of this invention and to identify compounds with enhanced metabolic stability due to the enrichment of deuterium in the compounds. Liver microsome proteins prepared from different species such as mouse and rat were obtained from a commercial source (Research Institute for Liver Diseases, Shanghai, China). The assay was conducted in 1.5% potassium hydrogenphosphate (K2HPO4) in the presence of liver microsome proteins at 1 mg/ml and supplemented with an […] (3.3 mM NADPH, 3.3 mM glucose-6-phosphate, 6 units/ml G6PDase, and 3.3 mM magnesium chloride). Test compound was added into the assay mixture to a final concentration of 40 μM and incubated at 37° C. for 0 or 30 minutes. The reaction was stopped by the addition of 20 μM Bifonazole/CAN. Samples were then centrifuged at 14000 rpm for 10 minutes to precipitate proteins. Supernatant were then transferred to microcentrifuge tubes and subject to reverse phase HPLC analysis to determine the concentration of test compound.
# The percentage of compounds that remained in the assay reactions after a thirty-minute incubation at 37° C. is calculated as the ratio between the amount of compound remained after a thirty-minute and that after a zero-minute incubation.
# T1 sequence (P35968 20-1356): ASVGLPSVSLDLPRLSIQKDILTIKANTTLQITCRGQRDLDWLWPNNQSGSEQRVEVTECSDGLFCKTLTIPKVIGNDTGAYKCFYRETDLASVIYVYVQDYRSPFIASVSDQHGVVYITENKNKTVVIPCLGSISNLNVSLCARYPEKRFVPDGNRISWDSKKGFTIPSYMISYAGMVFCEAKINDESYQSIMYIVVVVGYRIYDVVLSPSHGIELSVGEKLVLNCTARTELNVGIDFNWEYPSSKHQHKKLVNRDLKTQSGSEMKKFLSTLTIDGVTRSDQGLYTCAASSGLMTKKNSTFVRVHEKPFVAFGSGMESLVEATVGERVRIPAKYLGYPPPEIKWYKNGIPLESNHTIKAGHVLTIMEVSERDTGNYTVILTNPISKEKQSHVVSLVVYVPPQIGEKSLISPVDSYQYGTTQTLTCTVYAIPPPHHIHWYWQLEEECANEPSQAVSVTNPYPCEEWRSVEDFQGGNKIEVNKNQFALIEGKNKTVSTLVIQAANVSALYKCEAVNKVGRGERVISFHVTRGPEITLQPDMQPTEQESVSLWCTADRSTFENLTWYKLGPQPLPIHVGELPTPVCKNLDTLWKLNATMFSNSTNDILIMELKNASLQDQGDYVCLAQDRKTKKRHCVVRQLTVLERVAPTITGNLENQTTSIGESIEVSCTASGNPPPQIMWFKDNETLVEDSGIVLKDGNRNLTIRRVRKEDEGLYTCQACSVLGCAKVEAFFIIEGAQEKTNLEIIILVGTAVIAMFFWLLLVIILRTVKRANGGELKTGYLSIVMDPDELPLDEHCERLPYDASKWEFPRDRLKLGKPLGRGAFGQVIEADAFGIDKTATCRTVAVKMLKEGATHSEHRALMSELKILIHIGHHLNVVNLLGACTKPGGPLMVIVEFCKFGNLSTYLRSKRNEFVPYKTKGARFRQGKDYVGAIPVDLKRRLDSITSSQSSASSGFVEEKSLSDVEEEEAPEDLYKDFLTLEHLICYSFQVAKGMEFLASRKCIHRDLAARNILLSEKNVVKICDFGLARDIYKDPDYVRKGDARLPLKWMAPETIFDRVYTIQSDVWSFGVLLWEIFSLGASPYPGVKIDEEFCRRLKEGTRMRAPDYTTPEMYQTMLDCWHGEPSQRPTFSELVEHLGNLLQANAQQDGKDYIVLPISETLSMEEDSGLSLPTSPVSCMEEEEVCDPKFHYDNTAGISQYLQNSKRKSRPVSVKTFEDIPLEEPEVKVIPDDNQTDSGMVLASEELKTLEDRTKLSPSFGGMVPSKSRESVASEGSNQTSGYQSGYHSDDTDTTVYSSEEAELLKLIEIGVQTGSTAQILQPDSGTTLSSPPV
remaining activity at 0.1 µM [1] [%],remaining activity at 0.1 µM [2] [%],"% of compound remained at the 30th minutes, Rat liver microsome [3]",Compound
< 70,< 70,A,"[2H]C([2H])(c1ccnc2[nH]ccc12)N1CCc2c(NC(=O)Nc3cc(Cl)ccc3OC)cccc21 [Example 9, 1-(5-Chloro-2-methoxyphenyl)-3-[1-[dideuterio(1H-pyrrolo[2,3-b]pyridin-4-yl)methyl]indolin-4-yl]urea hydrochloride]"
< 70,≥ 70,A,"[2H]C([2H])([2H])Oc1ccc(Cl)cc1NC(=O)Nc1cccc2c1ccn2C([2H])([2H])c1ccnc(N)c1 [Example 4, 1-[1-[(2-amino-4-pyridyl)-dideuteriomethyl]indol-4-yl]-3-[5-chloro-2-(trideuteriomethoxy)phenyl]urea]"
< 70,< 70,A,"Cl.[2H]C([2H])(c1ccnc(N)c1)n1ccc2c(NC(=O)Nc3cc(Cl)ccc3OC)cccc21 [Example 2, 1-[1-[(2-amino-4-pyridyl)-dideuteriomethyl]indol-4-yl]-3-(5-chloro-2-methoxyphenyl)urea hydrochloride]"

# Further lines, the compound ahead of its results:
Compound,remaining activity at 0.1 µM [1] [%],remaining activity at 0.1 µM [2] [%],"% of compound remained at the 30th minutes, Rat liver microsome [3]"
"[2H]C([2H])(c1ccnc2[nH]ccc12)n1ccc2c(NC(=O)Nc3cccc(C)c3)cccc21 [Example 14, 1-[1-[dideuterio(1H-pyrrolo[2,3-b]pyridin-4-yl)methyl]indol-4-yl]-3-(m-tolyl)urea hydrochloride]",< 70,< 70,A
"[2H]C(c1c[nH]c2ncccc12)n1ccc2c(NC(=O)Nc3cccc(C)c3)cccc21 (stereo not drawn) [Example 22, 1-[1-[deuterio(1H-pyrrolo[2,3-b]pyridin-3-yl)methyl]indol-4-yl]-3-(m-tolyl)urea]",< 70,< 70,B

# Reference: patent US20130165475A1, “DEUTERIUM-ENRICHED HETEROCYCLIC COMPOUNDS AS KINASE INHIBITORS” (ASCEPION PHARMACEUTICALS, INC., priority 2010, published 2013)
